Earlier results as cited in patent US8715728B2, “Extended release pellet formulation containing pramipexole or a pharmaceutically acceptable salt thereof” (Boehringer Ingelheim International GmbH, priority 2004, dated 2014).
Structures can show the parent of a compound that is named as a salt.

Columns and labels:
[1] = in vivo
[2] = not given; remark: listed apart in the source

kinetics [1] | stability in solution (in solution, light) | stability in the solid state (solid state) | solubility in buffer media ([2]; between pH 2 and pH 7.4) | Water solubility ([2]; water) | SMILES
linear kinetics | light sensitive | very stable |  |  | CCCN[C@H]1CCc2nc(N)sc2C1 [Pramipexole, (S)-2-amino-4,5,6,7-tetrahydro-6-(propylamino)benzothiazole]
 |  |  | above 10 mg/ml | more than 20 mg/mL | CCCN[C@H]1CCc2nc(N)sc2C1 [Pramipexole dihydrochloride monohydrate, pramipexole dihydrochloride monohydrate]
